The numbers were not newly measured in PMC9298787 (The Prostate, 2021), which cites them from elsewhere.

For this data set the following is noted: single oral 160 mg enzalutamide, fasting, three matched healthy controls.

Values joined by “and” are separate entries in the source; they are usually repeats but may differ in a detail not shown here. Equal entries are not always repeated.

A word on the Cmax: it is the highest concentration seen after dosing. Turning to `CNC(=O)c1ccc(N2C(=S)N(c3ccc(C#N)c(C(F)(F)F)c3)C(=O)C2(C)C)cc1F` [enzalutamide], the “AUC0‐∞” value is 245.8 µg·h/mL and 224.8 µg·h/mL; the Cmax was 3800 ng/mL and 4600 ng/mL; the t1/2 is 115.3 h and 108.3 h and 111.6 h.
